Bounds are passed on as bounds.

Consider 27 compounds from patent US12448388B2, “PRMT5 inhibitors and uses thereof” (Gilead Sciences, Inc., priority 2023, dated 2025).

One assay has as its system HCT116 MTAP-deleted cell lines. Description: Cell viability assay (CellTiter-Glo, 7 days), HCT116 MTAP-deleted. The assay is classed as cell-based. To be noted: Homo sapiens, HCT-116; cell viability assay, HCT116 MTAP-deleted; class symbols; read-out: CC50. The procedure, abridged:
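Dose-response, PRMT5 inhibitors from DMSO serial dilution, pre-spotted; cells seeded onto compound plates. 7 d, 37 °C/5% CO2/90% RH. Readout: CTG luminescence → CC50.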
A general note: Cellular ATP, detected with luciferase, serves as a proxy for viable cell number.
As usually defined, the CC50 is the concentration at which the toxic effect on the cells reaches its halfway point. On to `Cc1ncc2c(N)nc3cnc(C(=O)N4CC[C@H]5C[C@@H]4c4ccc(C(F)(F)F)cc4O5)cc3n12` [Ff-369, (4-amino-1-methylimidazo[1,5-a]pyrido[3,4-e]pyrazin-8-yl)((2S,6R)-9-(trifluoromethyl)-3,4-dihydro-2H-2,6-methanobenzo[b][1,5]oxazocin-5(6H)-yl)methanone], for which the CC50 was below 0.1 µM.
On the same count and under the same terms, then `Nc1nc2cc(Cl)c(C(=O)N3CC[C@H]4C[C@@H]3c3ccc(C(F)(F)F)cc3O4)cc2n2cncc12` [Ff-370, (4-amino-7-chloroimidazo[1,5-a]quinoxalin-8-yl)((2S,6R)-9-(trifluoromethyl)-3,4-dihydro-2H-2,6-methanobenzo[b][1,5]oxazocin-5(6H)-yl)methanone], with below 0.1 µM; and `Nc1nc2cc(Cl)c(C(=O)N3CC[C@H]4C[C@@H]3c3ccc(C(F)(F)F)nc3O4)cc2n2cncc12` [Ff-371, (4-amino-7-chloroimidazo[1,5-a]quinoxalin-8-yl)((2S,6R)-9-(trifluoromethyl)-3,4-dihydro-2H-2,6-methanopyrido[2,3-b][1,5]oxazocin-5(6H)-yl)methanone], with below 0.1 µM.
With `Cc1ncn2c1c(N)nc1cc(F)c(C(=O)N3C[C@H](C)C[C@@H]4Oc5nc(C(F)(F)F)ccc5[C@@H]43)cc12` [Ff-374, (4-amino-7-fluoro-3-methylimidazo[1,5-a]quinoxalin-8-yl)((3R,4aS,9bS)-3-methyl-7-(trifluoromethyl)-3,4,4a,9b-tetrahydrofuro[2,3-b:4,5-b′]dipyridin-1(2H)-yl)methanone], the CC50 is below 0.1 µM.
For the compound `C[C@@H]1C[C@@H]2Oc3nc(C(F)(F)F)ccc3[C@@H]2N(C(=O)c2cc3c(cc2F)nc(N)c2cncn23)C1` [Ff-375, (4-amino-7-fluoroimidazo[1,5-a]quinoxalin-8-yl)((3R,4aS,9bS)-3-methyl-7-(trifluoromethyl)-3,4,4a,9b-tetrahydrofuro[2,3-b:4,5-b′]dipyridin-1(2H)-yl)methanone], the CC50 is below 0.1 µM.
On the same count and under the same terms, then `Cc1ncc2c(N)nc3cnc(C(=O)N4CCC[C@@H]5Oc6cc(OC(F)(F)F)c(F)cc6[C@@H]54)cc3n12` [Ff-376, (4-amino-1-methylimidazo[1,5-a]pyrido[3,4-e]pyrazin-8-yl)((4aS,9bS)-8-fluoro-7-(trifluoromethoxy)-3,4,4a,9b-tetrahydrobenzofuro[3,2-b]pyridin-1(2H)-yl)methanone], with below 0.1 µM; and `Nc1nc2ccc(C(=O)N3CCC[C@@H]4Oc5cc(OC(F)(F)F)c(F)cc5[C@@H]43)cc2n2cncc12` [Ff-377, (4-aminoimidazo[1,5-a]quinoxalin-8-yl)((4aS,9bS)-8-fluoro-7-(trifluoromethoxy)-3,4,4a,9b-tetrahydrobenzofuro[3,2-b]pyridin-1(2H)-yl)methanone], with below 0.1 µM.
Same read-out and setting: then `CC1(C)CN(C(=O)c2cc3c(cc2F)nc(N)c2cncn23)[C@H]2c3ccc(C(F)(F)F)cc3C[C@H]2O1` [Ff-380, (4-amino-7-fluoroimidazo[1,5-a]quinoxalin-8-yl)((4aS,9aR)-2,2-dimethyl-7-(trifluoromethyl)-2,3,9,9a-tetrahydroindeno[2,1-b][1,4]oxazin-4(4aH)-yl)methanone], with below 0.1 µM; and `Nc1nc2ccc(C(=O)N3CCC[C@@H]4Oc5c(ccc(OC(F)(F)F)c5F)[C@@H]43)cc2n2cncc12` [Ff-381, (4-aminoimidazo[1,5-a]quinoxalin-8-yl)((4aS,9bS)-6-fluoro-7-(trifluoromethoxy)-3,4,4a,9b-tetrahydrobenzofuro[3,2-b]pyridin-1(2H)-yl)methanone], with below 0.1 µM.
Turning to `Cc1ncn2c1c(N)nc1cc(F)c(C(=O)N(C)[C@@H]3COc4cc(C(C)(F)F)ccc43)cc12` [Ff-382, (S)-4-amino-N-(6-(1,1-difluoroethyl)-2,3-dihydrobenzofuran-3-yl)-7-fluoro-N,3-dimethylimidazo[1,5-a]quinoxaline-8-carboxamide], the CC50 was below 0.1 µM.
In the case of `Nc1nc2ccc(C(=O)N3CCC[C@@H]4Oc5cc(OC(F)(F)F)ccc5[C@@H]43)cc2n2cncc12` [Ff-383, (4-aminoimidazo[1,5-a]quinoxalin-8-yl)((4aS,9bS)-7-(trifluoromethoxy)-3,4,4a,9b-tetrahydrobenzofuro[3,2-b]pyridin-1(2H)-yl)methanone], the CC50 is below 0.1 µM.
With `C[C@H]1CC2Oc3cc(C(F)(F)F)ccc3C2N(C(=O)c2cc3c(cn2)nc(N)c2cncn23)C1` (stereo partly drawn) [Ff-386, (4-aminoimidazo[1,5-a]pyrido[3,4-e]pyrazin-8-yl)((3S)-3-methyl-7-(trifluoromethyl)-3,4,4a,9b-tetrahydrobenzofuro[3,2-b]pyridin-1(2H)-yl)methanone], the half-maximal cytotoxic concentration (CC50) is below 0.1 µM.
As to `Cc1ncc2c(N)nc3cnc(C(=O)N4C[C@H](C)C[C@@H]5Oc6c(ccc(C(F)(F)F)c6F)[C@@H]54)cc3n12` [Ff-388, (4-amino-1-methylimidazo[1,5-a]pyrido[3,4-e]pyrazin-8-yl)((3R,4aS,9bS)-6-fluoro-3-methyl-7-(trifluoromethyl)-3,4,4a,9b-tetrahydrobenzofuro[3,2-b]pyridin-1(2H)-yl)methanone], the CC50 is below 0.1 µM.
As to `Nc1nc2ccc(C(=O)N3CCC[C@@H]4Oc5cc(C(F)(F)F)c(F)cc5[C@@H]43)cc2n2cncc12` [Ff-389, (4-aminoimidazo[1,5-a]quinoxalin-8-yl)((4aS,9bS)-8-fluoro-7-(trifluoromethyl)-3,4,4a,9b-tetrahydrobenzofuro[3,2-b]pyridin-1(2H)-yl)methanone], the CC50 was below 0.1 µM.
`Nc1nc2cc(F)c(C(=O)N3CC(C(F)(F)F)OCC3c3ccc(C(F)(F)F)cn3)cc2n2cncc12` (stereo not drawn) [Ff-401]: the CC50 is 0.1 to 1 µM.
The same measure, in the same setting: then `Nc1nc2cc(F)c(C(=O)N3CCC(F)(F)C[C@@H]3c3ccc(OC(F)(F)F)cc3)cc2n2cncc12` [Ff-403, (R)-(4-amino-7-fluoroimidazo[1,5-a]quinoxalin-8-yl)(4,4-difluoro-2-(4-(trifluoromethoxy)phenyl)piperidin-1-yl)methanone], with 0.1 to 1 µM; and `Nc1nc2cc(F)c(C(=O)N3CCCC[C@@H]3c3ccc(S(F)(F)(F)(F)F)cc3)cc2n2cncc12` [Ff-404, (R)-(4-amino-7-fluoroimidazo[1,5-a]quinoxalin-8-yl)(2-(4-(pentafluoro-λ^6-sulfaneyl)phenyl)piperidin-1-yl)methanone], with below 0.1 µM; and `Nc1nc2cc(F)c(C(=O)N3CCC(F)(F)C[C@@H]3c3ccc(S(F)(F)(F)(F)F)cc3)cc2n2cncc12` [Ff-405, (R)-(4-amino-7-fluoroimidazo[1,5-a]quinoxalin-8-yl)(4,4-difluoro-2-(4-(pentafluoro-λ^6-sulfaneyl)phenyl)piperidin-1-yl)methanone], with below 0.1 µM.
Still for that read-out and setting: with `C[C@H]1CN(C(=O)c2cc3c(cc2Cl)nc(N)c2cncn23)[C@H]2c3ccc(C(F)(F)F)cc3C[C@H]2O1` [Ff-406, (4-amino-7-chloroimidazo[1,5-a]quinoxalin-8-yl)((2S,4aS,9aR)-2-methyl-7-(trifluoromethyl)-2,3,9,9a-tetrahydroindeno[2,1-b][1,4]oxazin-4(4aH)-yl)methanone] the figure was below 0.1 µM; with `Nc1nc2ccc(C(=O)N(Cc3ccc(C(F)(F)F)cc3F)C3CCC3)cc2n2cncc12` [Ff-408, 4-amino-N-cyclobutyl-N-[[2-fluoro-4-(trifluoromethyl)phenyl]methyl]imidazo[1,5-a]quinoxaline-8-carboxamide], below 0.1 µM.
As for `CN(Cc1ccc(C(F)(F)F)cc1C(F)(F)F)C(=O)c1ccc2nc(N)c3cncn3c2c1` [Ff-409, 4-amino-N-[[2,4-bis(trifluoromethyl)phenyl]methyl]-N-methyl-imidazo[1,5-a]quinoxaline-8-carboxamide], the CC50 lay within 0.1 to 1 µM.

The same assay, now with this note: Homo sapiens, HCT-116; cell viability, HCT116 MTAP-deleted; class symbols; read-out: CC50.
With `Cc1ncc2c(N)nc3cc(F)c(C(=O)N4CCC[C@@H]5OCc6nc(C(F)(F)F)ccc6[C@@H]54)cc3n12` [Ff-359, (4-amino-7-fluoro-1-methylimidazo[1,5-a]quinoxalin-8-yl)((4aS,10bS)-8-(trifluoromethyl)-2,3,4,4a,6,10b-hexahydro-1H-pyrano[3,2-b:5,4-b′]dipyridin-1-yl)methanone], the cytotoxic concentration (CC50) was below 0.1 µM.
On the same count and under the same terms, with `Cc1ncn2c1c(N)nc1cc(Cl)c(C(=O)N3CCC[C@@H]4OCc5nc(C(F)(F)F)ccc5[C@@H]43)cc12` [Ff-360, (4-amino-7-chloro-3-methylimidazo[1,5-a]quinoxalin-8-yl)((4aS,10bS)-8-(trifluoromethyl)-2,3,4,4a,6,10b-hexahydro-1H-pyrano[3,2-b:5,4-b′]dipyridin-1-yl)methanone] the figure was below 0.1 µM; with `Nc1nc2cc(F)c(C(=O)N3CCC[C@@H]4Oc5nc(C(F)(F)F)ccc5[C@@H]43)cc2n2cncc12` [Ff-361, (4-amino-7-fluoroimidazo[1,5-a]quinoxalin-8-yl)((4aS,9bS)-7-(trifluoromethyl)-3,4,4a,9b-tetrahydrofuro[2,3-b:4,5-b′]dipyridin-1(2H)-yl)methanone], below 0.1 µM.
The same measure, in the same setting: with `Cc1ncn2c1c(N)nc1cc(F)c(C(=O)N3CCC[C@@H]4Oc5nc(C(F)(F)F)ccc5[C@@H]43)cc12` [Ff-362, (4-amino-7-fluoro-3-methylimidazo[1,5-a]quinoxalin-8-yl)((4aS,9bS)-7-(trifluoromethyl)-3,4,4a,9b-tetrahydrofuro[2,3-b:4,5-b′]dipyridin-1(2H)-yl)methanone] the figure was below 0.1 µM; with `Cc1ncn2c1c(N)nc1cc(Cl)c(C(=O)N3CCC[C@@H]4Oc5nc(C(F)(F)F)ccc5[C@@H]43)cc12` [Ff-364, (4-amino-7-chloro-3-methylimidazo[1,5-a]quinoxalin-8-yl)((4aS,9bS)-7-(trifluoromethyl)-3,4,4a,9b-tetrahydrofuro[2,3-b:4,5-b′]dipyridin-1(2H)-yl)methanone], below 0.1 µM.
Still for that read-out and setting: then `Nc1nc2cc(F)c(C(=O)N3CC[C@H]4C[C@@H]3c3ccc(C(F)(F)F)cc3O4)cc2n2cncc12` [Ff-365, (4-amino-7-fluoroimidazo[1,5-a]quinoxalin-8-yl)((2S,6R)-9-(trifluoromethyl)-3,4-dihydro-2H-2,6-methanobenzo[b][1,5]oxazocin-5(6H)-yl)methanone], with below 0.1 µM.
